viability, inhibition and IC50 data for 10 molecules are collected here from ChEMBL document CHEMBL4004877, “Synthesis and biological evaluation of chalcone, dihydrochalcone, and 1,3-diarylpropane analogs as anti-inflammatory agents” (Bioorg Med Chem Lett, 2017).

Series [1] is described as follows: Cytotoxicity against LPS-stimulated mouse RAW264.7 cells assessed as cell viability at 5 ug/ml after 24 hrs by MTT assay relative to control. To be noted: LPS-stimulated RAW264.7 cells, read-out: Activity. The format is cell-based. For orientation: Tetrazolium assays rely on reduction of a dye to a coloured formazan, in cell work by metabolically active cells.

The nature of series [2]: Cytotoxicity against LPS-stimulated mouse RAW264.7 cells assessed as cell viability at 2.5 ug/ml after 24 hrs by MTT assay relative to control. The format is cell-based. To be noted: LPS-stimulated RAW264.7 cells, read-out: Activity.
The subject of series [3] is RAW264.7. Put plainly: Antiinflammatory activity in mouse RAW264.7 cells assessed as inhibition of LPS induced iNOS-dependent nitric oxide production at 5 ug/ml after 24 hrs by Griess assay relative to control. The format is functional. To be noted: RAW264.7, 24 h.
Series [4] relates to RAW264.7. The series can be described thus: Antiinflammatory activity in mouse RAW264.7 cells assessed as inhibition of LPS induced iNOS-dependent nitric oxide production after 24 hrs by Griess assay. To be noted: RAW264.7, 24 h. In kind it is functional, cell-based. (Nitrite, measured by Griess reagent, commonly stands in for NO production.)
Series [5] can be described thus: Cytotoxicity against LPS-stimulated mouse RAW264.7 cells assessed as cell viability at 10 ug/ml after 24 hrs by MTT assay relative to control. In kind it is cell-based. The note with it: LPS-stimulated RAW264.7 cells, read-out: Activity.
Series [6] has as its system RAW264.7. The series can be described thus: Antiinflammatory activity in mouse RAW264.7 cells assessed as inhibition of LPS induced iNOS-dependent nitric oxide production at 10 ug/ml after 24 hrs by Griess assay relative to control. In kind it is functional. To be noted: RAW264.7, 24 h.
The nature of series [7]: Cytotoxicity against LPS-stimulated mouse RAW264.7 cells assessed as cell viability at 1.25 ug/ml after 24 hrs by MTT assay relative to control. The format is cell-based. The note with it: LPS-stimulated RAW264.7 cells, read-out: Activity.
Series [8] concerns RAW264.7. Put plainly: Antiinflammatory activity in mouse RAW264.7 cells assessed as inhibition of LPS induced iNOS-dependent nitric oxide production at 1.25 ug/ml after 24 hrs by Griess assay relative to control. The format is functional. The note with it: RAW264.7, 24 h.
Series [9] deals with RAW264.7. Put plainly: Antiinflammatory activity in mouse RAW264.7 cells assessed as inhibition of LPS induced iNOS-dependent nitric oxide production at 2.5 ug/ml after 24 hrs by Griess assay relative to control. In kind it is functional. To be noted: RAW264.7, 24 h.

Converted amounts (≈) assume the structure as drawn.

Take `COc1ccc(CCCc2cccc(O)c2)cc1`: the viability at 24 h, 5 ug/ml in series [1] was found to be 94.1%. The viability at 24 h, 2.5 ug/ml in series [2] amounted to 99.2%. For the same molecule, the inhibition at 5 µg/mL in the series on RAW264.7 [3] came out at 40.1%. In addition, the IC50 in the series with RAW264.7 [4] was 7.72 µg/mL (≈ 31.9 µM). Moreover, the viability at 24 h, 10 ug/ml in series [5] stood at 76.2%. In addition, the inhibition at 10 µg/mL in the series with RAW264.7 [6] was found to be 55.9%. Further, the viability at 24 h, 1.25 ug/ml in series [7] amounted to 99.9%. Further, in the series on RAW264.7 [8], the inhibition at 1.25 µg/mL was 22.2%. In addition, in the series on RAW264.7 [9], the inhibition at 2.5 µg/mL worked out at 20.5%.

On to `COc1cccc(CCCc2cccc(O)c2)c1OC`, for which, in series [1], the viability at 24 h, 5 ug/ml stood at 96.1%. Also, the viability at 24 h, 2.5 ug/ml in series [2] turned out to be 97.4%. Further, the inhibition at 5 µg/mL with RAW264.7 [3] is 18.3%. In the series with RAW264.7 [4], the IC50 came to 8.09 µg/mL (≈ 29.7 µM). Besides, the viability at 24 h, 10 ug/ml in series [5] is 69.6%. Moreover, in the series on RAW264.7 [6], the inhibition at 10 µg/mL is 63.9%. For the same molecule, the viability at 24 h, 1.25 ug/ml in series [7] was 97.1%. Moreover, the inhibition at 1.25 µg/mL with RAW264.7 [8] amounted to 16.3%. The inhibition at 2.5 µg/mL in the series on RAW264.7 [9] was 18.4%.

As to `COc1cccc(CCC(=O)c2cccc(O)c2)c1OC`, the viability at 24 h, 5 ug/ml in series [1] was determined as 93.4%. Also, in series [2], the viability at 24 h, 2.5 ug/ml worked out at 94%. Besides, the inhibition at 5 µg/mL with RAW264.7 [3] worked out at 25%. The IC50 with RAW264.7 [4] is more than 10 µg/mL. The viability at 24 h, 10 ug/ml in [5] was 91.4%. Moreover, in the series on RAW264.7 [6], the inhibition at 10 µg/mL was found to be 47.5%. In addition, in series [7], the viability at 24 h, 1.25 ug/ml worked out at 96.4%. Moreover, the inhibition at 1.25 µg/mL with RAW264.7 [8] was 7.5%. Also, in the series on RAW264.7 [9], the inhibition at 2.5 µg/mL turned out to be 14.1%.

With `COc1ccc(C(=O)/C=C/c2ccc(OC)cc2OC)c(O)c1`, the viability at 24 h, 5 ug/ml in series [1] is 87.3%. Further, the viability at 24 h, 2.5 ug/ml in series [2] came to 90.3%. Also, in the series on RAW264.7 [3], the inhibition at 5 µg/mL worked out at 12.2%. Also, in the series on RAW264.7 [4], the IC50 was more than 10 µg/mL. Moreover, in [5], the viability at 24 h, 10 ug/ml amounted to 68%. Also, the inhibition at 10 µg/mL with RAW264.7 [6] was determined as 2.8%. In series [7], the viability at 24 h, 1.25 ug/ml amounted to 98.7%. Besides, the inhibition at 1.25 µg/mL in the series with RAW264.7 [8] was determined as 3.4%. For the same molecule, in the series on RAW264.7 [9], the inhibition at 2.5 µg/mL stood at 7.4%.

As for `COc1ccc(OC)c(CCC(=O)c2cccc(O)c2)c1`, the viability at 24 h, 5 ug/ml in series [1] was 97.5%. Moreover, the viability at 24 h, 2.5 ug/ml in series [2] turned out to be 96.8%. Further, the inhibition at 5 µg/mL in the series on RAW264.7 [3] was 22.3%. The IC50 in the series on RAW264.7 [4] is more than 10 µg/mL. Further, in series [5], the viability at 24 h, 10 ug/ml turned out to be 93.6%. Also, in the series with RAW264.7 [6], the inhibition at 10 µg/mL amounted to 38.5%. In addition, in series [7], the viability at 24 h, 1.25 ug/ml was 98.6%. Besides, the inhibition at 1.25 µg/mL in the series on RAW264.7 [8] worked out at 15.7%. Further, in the series on RAW264.7 [9], the inhibition at 2.5 µg/mL was 18.4%.

As for `COc1ccc(C(=O)CCc2cc(OC)ccc2OC)c(O)c1`, in series [1], the viability at 24 h, 5 ug/ml came to 91.1%. For the same molecule, the viability at 24 h, 2.5 ug/ml in [2] was 96.2%. Also, in the series on RAW264.7 [3], the inhibition at 5 µg/mL is 11.9%. Moreover, in the series on RAW264.7 [4], the IC50 is more than 10 µg/mL. For the same molecule, the viability at 24 h, 10 ug/ml in series [5] was 92.4%. Moreover, the inhibition at 10 µg/mL in the series with RAW264.7 [6] is 14%. Moreover, the viability at 24 h, 1.25 ug/ml in series [7] worked out at 96.4%. Also, in the series with RAW264.7 [8], the inhibition at 1.25 µg/mL came to 6.6%. Also, the inhibition at 2.5 µg/mL in the series on RAW264.7 [9] amounted to 8.2%.

Take `COc1ccc(/C=C/C(=O)c2ccc(OC)cc2O)cc1`: the viability at 24 h, 5 ug/ml in series [1] was found to be 75.2%. Also, in [2], the viability at 24 h, 2.5 ug/ml was found to be 72.3%. For the same molecule, the inhibition at 5 µg/mL in the series with RAW264.7 [3] came to 54%. Also, the IC50 in the series with RAW264.7 [4] is 4.73 µg/mL (≈ 16.6 µM). For the same molecule, in series [5], the viability at 24 h, 10 ug/ml came out at 72.6%. Moreover, the inhibition at 10 µg/mL in the series with RAW264.7 [6] was found to be 78.2%. Besides, in series [7], the viability at 24 h, 1.25 ug/ml is 93.3%. Further, in the series with RAW264.7 [8], the inhibition at 1.25 µg/mL came to 9.4%. Besides, in the series with RAW264.7 [9], the inhibition at 2.5 µg/mL is 3.5%.

As for `COc1cc(CCCc2ccc3c(c2)OCO3)ccc1O`, the viability at 24 h, 5 ug/ml in series [1] amounted to 93.3%. The viability at 24 h, 2.5 ug/ml in series [2] came to 96.2%. Further, the inhibition at 5 µg/mL in the series on RAW264.7 [3] came out at 52.7%. For the same molecule, the IC50 in the series with RAW264.7 [4] worked out at 3.64 µg/mL (≈ 12.7 µM). In addition, the viability at 24 h, 10 ug/ml in [5] was found to be 58.2%. Besides, the inhibition at 10 µg/mL in the series on RAW264.7 [6] amounted to 78.3%. Also, the viability at 24 h, 1.25 ug/ml in [7] was 98.5%. Also, the inhibition at 1.25 µg/mL in the series on RAW264.7 [8] was 42.4%. For the same molecule, the inhibition at 2.5 µg/mL with RAW264.7 [9] is 46.8%.

On to `COc1cc(/C=C/C(=O)c2cccc(O)c2)ccc1O`, for which, in series [1], the viability at 24 h, 5 ug/ml is 63.8%. Besides, the viability at 24 h, 2.5 ug/ml in series [2] was determined as 94%. The inhibition at 5 µg/mL in the series with RAW264.7 [3] amounted to 3.2%. In the series with RAW264.7 [4], the IC50 is more than 10 µg/mL. Also, the viability at 24 h, 10 ug/ml in series [5] was 62.6%. For the same molecule, the inhibition at 10 µg/mL in the series with RAW264.7 [6] came out at 12.2%. For the same molecule, the viability at 24 h, 1.25 ug/ml in series [7] is 96.9%. Besides, the inhibition at 1.25 µg/mL with RAW264.7 [8] is 3%. Besides, the inhibition at 2.5 µg/mL with RAW264.7 [9] is 3.2%.

Regarding `COc1ccc(CCCc2ccc(OC)c(OC)c2)cc1OC`, in series [1], the viability at 24 h, 5 ug/ml is 95.6%. For the same molecule, in series [2], the viability at 24 h, 2.5 ug/ml amounted to 97.4%. Besides, the inhibition at 5 µg/mL in the series with RAW264.7 [3] was found to be 26.1%. In addition, the IC50 in the series with RAW264.7 [4] stood at 9.47 µg/mL (≈ 29.9 µM). For the same molecule, the viability at 24 h, 10 ug/ml in [5] was found to be 94.9%. In addition, the inhibition at 10 µg/mL in the series with RAW264.7 [6] turned out to be 52%. The viability at 24 h, 1.25 ug/ml in series [7] turned out to be 99%. The inhibition at 1.25 µg/mL in the series on RAW264.7 [8] was 8.4%. Moreover, the inhibition at 2.5 µg/mL in the series with RAW264.7 [9] was determined as 12.7%.

One may read the inhibition as the drop in the measured response relative to a control, in per cent. As a reminder, the IC50 is the midpoint of a concentration-inhibition curve.
